Read-outs that look alike come from different tables or passages of the source.
Legend:
HB-EGF [1] = molecular target: T1, HB-EGF (Homo sapiens, UniProt Q99075); experiment: SPR; also competition ELISA against immobilized heparin (IC50 =[…]); assay type: binding
T1 construct: gene HBEGF

HB-EGF [2] = molecular target: T1, HB-EGF; experiment: as above; assay type: binding; remark: listed apart in the source

T1 sequence (Q99075 63-148): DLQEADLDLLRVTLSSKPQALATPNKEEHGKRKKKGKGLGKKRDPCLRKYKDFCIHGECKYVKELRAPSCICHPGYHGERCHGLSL

Kd (HB-EGF [1]) [µM] | Kd (HB-EGF [2]) [µM] | Structure (SMILES)
11.1 |  | CC(=O)N[C@H]1[C@@H](O[C@H]2[C@H](O)[C@@H](O)[C@H](OCCCN)O[C@H]2C(=O)O)O[C@H](COS(=O)(=O)O)[C@@H](O[C@@H]2O[C@@H](C(=O)O)[C@@H](O[C@H]3O[C@H](COS(=O)(=O)O)[C@@H](O)[C@H](O)[C@H]3NC(C)=O)[C@H](O)[C@H]2O)[C@@H]1O [compound 7, 6-O-S HS tetrasaccharide (7)]
 | 11.1 | CC(=O)N[C@H]1[C@@H](O[C@H]2[C@H](O)[C@@H](O)[C@H](OCCCN)O[C@H]2C(=O)O)O[C@H](COP(=O)(O)O)[C@@H](O[C@@H]2O[C@@H](C(=O)O)[C@@H](O[C@H]3O[C@H](COP(=O)(O)O)[C@@H](O)[C@H](O)[C@H]3NC(C)=O)[C@H](O)[C@H]2O)[C@@H]1O [compound 8, 6-O-phosphated HS tetrasaccharide (8)]
